Entries after “also recorded” stand apart in the source; their conditions may differ. Where two headings read alike, the source gives them in different places.
Tests used:
[1] = Liver homogenate metabolic stability, mouse; type: in vitro ADME
Experimental: Plasma from mice, rats, rabbits, and humans was obtained from blood after centrifugation at 3000 r/min for 10 min. Simulated gastric fluid (SGF, pH = 1, containing pepsin) and simulated intestinal fluid (SIF, pH = 6.8, containing trypsin) were configured previously in the experiments. SD rats and mice were collected, and after removing the mucus layer from the small intestine and colon, 20 times the volume of liquid bacterial culture medium was added. An intestinal microbiota suspension was obtained after anaerobic cultivation on a shaking table at 37 °C for 12 h. In the aforementioned systems, E3 was added at a final concentration of 1 μmol/L at 37 °C for different incubation times (0, 10, 20, 30, 60, 120, and 240 min). In liver metabolic stability assays, E3 was incubated with liver microsomes or liver homogenate from mice or rats for 60 min at 37 °C. The stop solution, 5 ng/mL tolbutamide (internal standard, IS) in acetonitrile, was added to stop the metabolic process. Post-centrifugation (18,000× g, 10 min, 4 °C), supernatants were subjected to liquid chromatography–tandem mass spectrometry (LC–MS/MS). Analyte-to-IS peak area ratios quantified residual percentages via Equation (2):Remaining% = (E3peak area/ISpeak area at different time)/(E3peak area/ISpeak area at 0 min) × 100%.(2)

[2] = Pharmacokinetic study in rats; type: in vivo, rat
Experimental: Male SD rats were allowed free access to food in a controlled environment of 22 ± 2 °C, with a humidity level of 55% ± 5%, and maintained under a 12 h light/dark cycle. In the oral administration groups, E3 was delivered in a 0.5% CMC-Na solution at a dosage of 4 mg/kg body weight. Blood samples were collected by the orbital venous plexus and kept on ice at the following time points: 0.083, 0.167, 0.25, 0.5, 1, 2, 4, 6, 8, 12, and 24 h. E3 formulations (DMSO:PEG400:saline = 10:30:60, v/v) were administered via tail vein (1 mg/kg). Serial blood sampling (0.033, 0.083, 0.167, 0.333, 0.5, 1, 2, 4, 8, 12, and 24 h post-dose) yielded plasma via centrifugation (3000 r/min, 10 min, 4 °C), stored at −80 °C until PK analysis using DAS 3.2.8 (noncompartmental analysis model).
(§1) The analyte E3 and IS were dissolved in DMSO to generate the stock solutions. The working calibration of E3 was gradient-diluted with MeOH/H2O (1:1, v/v). Three microliters of working solutions were spiked with 27 μL of the blank rat plasma to establish the calibration standards. The final concentrations of the standard samples were 1, 2, 5, 10, 50, 250, 500, and 1000 ng/mL. Quality control samples (3/100/800 ng/mL) were prepared using identical protein precipitation protocols. Briefly, 30 μL calibrators and biological matrices were mixed with 450 μL stop solution, vortexed (5 min), and centrifuged (18,000× g, 10 min, 4 °C). Processed supernatants (2 μL injection volume) were subjected to LC-MS/MS analysis.
(§2) The analysis was conducted by an Xevo TQ-S Cronos Triple Quadrupole Mass Spectrometer coupled with an ACQUITY UPLC (Waters Corp, Milford, MA, USA). The chromatographic separation was conducted in an ACQUITY UPLC BEH C18 1.7 µm column (Waters, Milford, MA, USA) at 40 °C with a flow rate of 0.4 mL/min. The mobile phases were 0.1% (v/v) formic acid in water (A) and pure ACN (B). […] An electrospray ionization (ESI) source with multiple–reaction monitoring (MRM) in positive–ion mode was employed to quantify the analytes with the transitions of m/z 385.11 > 244.19 and m/z 271.136 > 91.01 for E3 and IS, respectively. The optimized cone voltage is 10 V and 24 V for E3 and IS, respectively. The collision energy is 12 V and 32 V for E3 and IS, respectively. MassLynx v4.2 (Waters Corp, Milford, MA, USA) was used for data acquisition and analysis.

[3] = Tissue distribution study in rats; type: in vivo, rat
Experimental: Male SD rats were randomly divided into four groups and received a single oral dose of E3 at 4 mg/kg. Blood and tissue samples (i.e., heart, liver, kidney, spleen, lung, brain, testis, skin, muscle, leg bone, stomach, small intestine, and colon) were collected at 0.5 h, 2 h, 6 h, and 24 h after dosing. Tissues were perfused with cold saline, blotted, weighed, and homogenized (10 vol/wt ice-cold H2O; T10 homogenizer, IKA, Staufen, Germany). The rats’ right shin bone was decalcified in methanol (4 °C, 12 h). Processed samples (−80 °C storage) underwent LC-MS/MS analysis as described.
as §1, §2

[4] = male, SD, rat, plasma, iv, 1 mg/kg, single i.v. 1 mg/kg, n = 5
[5] = male, SD, rat, plasma, iv, single i.v. 1 mg/kg, n = 5
[6] = male, SD, rat, plasma, po, 4 mg/kg, single p.o. 4 mg/kg, n = 5
[7] = male, SD, rat, plasma, po, single p.o. 4 mg/kg, n = 5

Q: For `CC(=O)c1ccc(C(=O)Nc2cccc(NS(=O)(=O)c3ccccc3)c2)o1` [Compound E3, 5-acetyl-N-(3-(phenylsulfonamido)phenyl)furan-2-carboxamide], which “CLhep, mouse liver homogenate” value ([1]; calculated with 45 mg/g liver, 50 g liver/kg) is on record?
A: 99.3 mL/min/kg

Q: And the remaining at 1 h ([1]; mouse, liver homogenate, 60 min incubation, 37 °C, n=3)?
A: 39.8%

Q: What about the “plasma concentration within 24 h” value ([2]; after intragastric gavage administration) of the same molecule?
A: less than 2 ng/mL

Q: What about the MRT [2, 4] of the same molecule?
A: 1.1 h

Q: And the half-life [2, 4]?
A: 1.9 h

Q: What about the AUC(0-inf) [2, 5] of the same molecule?
A: 1120 ng·h/mL

Q: What about the AUC(0-t) [2, 5] of the same molecule?
A: 1120 ng·h/mL

Q: And the Cmax ([2]; male, SD, rat, plasma, iv, single i.v. 1 mg/kg, n = 5, read-out: C max)?
A: 2540 ng/mL

Q: What about the bioavailability ([2]; male, SD, rat, plasma, oral, p.o. 4 mg/kg vs i.v. 1 mg/kg, read-out: F (oral bioavailability)) of the same molecule?
A: 21.1%

Q: What about the MRT [2, 6] of the same molecule?
A: ~6.1 h

Q: What about the Tmax [2, 6] of the same molecule?
A: ≤ 2 h

Q: What about the half-life [2, 6] of the same molecule?
A: ~4.9 h

Q: And the Cmax ([2]; male, SD, rat, plasma, po, p.o. 4 mg/kg, conversion of 170.3 ng/mL, read-out: Cmax in molar units)?
A: 443 nM

Q: What about the AUC(0-inf) [2, 7] of the same molecule?
A: 943 ng·h/mL

Q: What about the AUC(0-t) [2, 7] of the same molecule?
A: 919 ng·h/mL

Q: And the CL/F [2, 7]?
A: 70 mL/min/kg

Q: And the Cmax ([2]; male, SD, rat, plasma, po, single p.o. 4 mg/kg, n = 5, read-out: C max)?
A: 170 ng/mL

Q: And the “V (V/F row; V for the i.v. group)” value ([2]; single i.v. 1 mg/kg, n = 5)?
A: 2.5 L/kg

Q: And the V/F ([2]; single p.o. 4 mg/kg, n = 5)?
A: 30.1 L/kg

Q: And the “permeability to the blood–brain barrier (BBB) and blood–testis barrier (BTB)” value ([3]; inferred from tissue distribution)?
A: lower permeability; also recorded: low permeability

Q: And the “concentration in kidney relative to other tissues” value ([3]; single oral 4 mg/kg)?
A: highest concentration

Q: What about the “distribution in the brain, testis” value ([3]; single oral 4 mg/kg) of the same molecule?
A: relatively low distribution

Q: And the “time of peak drug concentration in most tissues” value ([3]; single oral 4 mg/kg, post-administration)?
A: 2 h

Source: article PMC12024912, “Druggability Studies of Benzene Sulfonamide Substituted Diarylamide (E3) as a Novel Diuretic” (Biomedicines, 2025)
